# Measurements reported in patent US9421179B2, “Acamprosate formulations, methods of using the same, and combinations comprising the same” (Synchroneuron Inc., priority 2011, dated 2016).
# Entries after “also recorded” stand apart in the source; their conditions may differ.
# Key:
# [1] = test system: Per2(Brdm1) deletion or ENT1(-/-) mice; assay: Transgenic mouse models with movement disorders and hyperglutamatergic states; type: in vivo; conditions: steadily-maintained blood level
# [2] = cited from earlier work
# [3] = cited from earlier work; remark: listed apart in the source
# tardive dyskinesia = assay: Clinical cases: acamprosate treatment of tardive dyskinesia; type: in vivo, human
# Description: Case 1: A person had long-standing tardive dyskinesia induced by treatment of schizoaffective disorder with a variety of neuroleptics and mood stabilizers. Their TD was characterized by side to side movements of the jaw, grimacing movements, rocking of the trunk, and continual involuntary kicking, leg-crossing, and twisting movements of their legs and feet. At the time they presented for treatment of their TD they were treated for their mental illness with lamotrigine and quetiapine, a second-generation neuroleptic.
# After additional weeks free of TD symptoms they discontinued the acamprosate. Their TD symptoms returned, as did feelings of anxiety and agitation that had not been present while they were on the combination of acamprosate and perphenazine.
# To test the hypothesis that the efficacy of acamprosate was related to adequate time above a threshold blood level the patient was asked to try taking 1332 mg of acamprosate once a day.
# CASE 2: A person had been treated with acamprosate for several years for TD due to exposure to several neuroleptics for schizoaffective disorder. They were currently treated with lamotrigine and quetiapine for their mental illness, and was taking acamprosate 1032 mg+999 mg+1032 mg on a three times daily basis. […] To test the therapeutic threshold hypothesis the patient was asked to try 1032 mg of acamprosate once a day in the morning.
# [4] = test system: abnormal chewing movements produced in rats by haloperidol; assay: Rat model of tardive dyskinesia (haloperidol-induced abnormal chewing movements); type: in vivo; conditions: steadily-maintained blood level; rats exposed several weeks to haloperidol
# Description: Acamprosate is tested using a rat model of tardive dyskinesia looking at abnormal chewing movements produced in rats by exposing them for several weeks to haloperidol, a potent first-generation neuroleptic. […]
# [5] = test system: cultured rat hippocampus neurons; assay: Organotypic hippocampal slice model of glutamate neurotoxicity after acamprosate pre-treatment; type: cell-based; conditions: 200 μM calcium acamprosate for 8 hr or 5 days; removed for up to eight hours; challenge NMDA 50 uM or mGluR agonist
# Description: The study is designed to test whether pre-treatment with acamprosate can have long-term neuronal protective effects against glutamate neurotoxicity. The study uses an in vitro organotypic hippocampal slice model. The study assesses whether less than 24 hours per day of exposure to a sufficient level of acamprosate can offer 24-hour therapeutic actions in neuropsychiatric disorders. […] This supports, among other things, the therapeutic use of acamprosate in neuropsychiatric disorders because the latter are related to the effect of acamprosate to decrease glutamate effects at NMDA and metabotropic glutamate receptors.
# Hippocampal slices derived from 8-day-old Sprague Dawley rats are plated and subsequently exposed to a relatively acute (8 hour) or more chronic (5 day) acamprosate treatment. […] The slices are then placed in normal medium with propidium iodide for 24 hr and assessed for neurotoxicity/neuroprotection as described below. […]
# For the final medium change, the plates are moved into normal media containing propidium iodide (PI) added to each well for 24 hours. PI only penetrates cell membranes of damaged or potentially dying cells, binding to DNA to produce a bright, intensified red fluorescence at 630 nm. […] Fluorescence is recorded in arbitrary units, then converted to percent of control, facilitating comparison across multiple cultures and controlling for variation between litters.
# [6] = Gastric retention time of swellable acamprosate tablet in dog model (fed mode induction with alpha-lipoic acid); type: in vivo; conditions: retention of 800 mg swellable tablet; After 125 mg alpha-lipoic acid given 15 minutes before; four beagle dogs
Structure (SMILES),abnormal movements [1],solubility [2],solubility in gastric juice ([2]; gastric juice),decrease of bioavailability by food [3],"relief of TD symptoms (tardive dyskinesia; Case 1, 666 mg three times a day)","relief of TD symptoms (tardive dyskinesia; Case 1, 999 mg three times a day)","anxiety and agitation (tardive dyskinesia; Case 1, 999 mg three times a day, with perphenazine)","relief of TD symptoms (tardive dyskinesia; Case 1, 1332 mg once a day)","side effects (tardive dyskinesia; Case 1, 1332 mg once a day)","relief of involuntary movements of TD (tardive dyskinesia; Case 2, 999 mg three times a day)","relief of involuntary movements of TD (tardive dyskinesia; Case 2, 1032 mg in the morning plus second dose of 1032 mg 8 to 10 hours later)","relief of involuntary movements of TD (tardive dyskinesia; Case 2, 1032 mg once a day in the morning)","relief of involuntary movements of TD (tardive dyskinesia; Case 2, 1032 mg+999 mg+1032 mg three times daily)","anxiety and agitation (tardive dyskinesia; Case 2, when involuntary movements were relieved, with lamotrigine and quetiapine)",abnormal chewing movements [4],effect on post-synaptic effects of glutamate agonists after removal of acamprosate from the culture medium [5],Average gastric retention time [6] [h],Maximum gastric retention time [6] [h],Minimum gastric retention time [6] [h]
"CC(=O)NCCCS(=O)(=O)O [acamprosate, calcium N-acetylhomotaurinate]",reduce or eliminate the abnormal movements,high solubility,immediately and completely soluble in gastric juice,approximately 30%,partial relief of symptoms; also recorded: did not give their complete relief,complete relief of their TD,relief of anxiety and agitation,free of involuntary movements of TD,significant GI side effects of diarrhea and abdominal cramps,did not give full relief from their involuntary movements,complete relief of symptoms,free of movements in the morning and early afternoon but movements returned in the evening,completely relieved their involuntary movements of TD,less anxiety and agitation,reduce or eliminate the abnormal movements,persistent effect,–,–,–
O=C(O)CCCCC1CCSS1 (stereo not drawn) [alpha-lipoic acid],–,–,–,–,–,–,–,–,–,–,–,–,–,–,–,–,2.8,5,1.5
